This note sets out measurements from US11318141B2, “Methods and compositions related to STK1-targeted small molecules as antibiotic resistance breakers” (Ohio State Innovation Foundation, priority 2017, dated 2022).

For data set [1], the system named is S. aureus MW2 wild-type. Description: Checkerboard titration end-point bactericidal assay (MBC), Muller-Hinton agar. The format is cell-based, Staphylococcus aureus. The note with it: agent alone. As to the method:
FIGS. 15A-15B show checkerboard assays for determining bactericidal assay. Serial two-fold dilutions of 2 mM of Inh2-B1 (MW=411.58 g/mol) and (A) 3 mM ceftriaxone (MW=669.7 g/mol) were made in two separate 96-well plates in vertical (B1-B12 to H1-H2 wells) and horizontal (A2-H2 to A12-H12 wells) directions respectively. Serially diluted Inh2-B1 (100 μL) in the individual well was then mixed with the 100 μL serially diluted ceftriaxone present in the corresponding wells. The resulting various combinations of Inh2-B1 (starting from 1 mM) and ceftriaxone (starting from 1.5 mM) or cefotaxime (2.1 mM) as well as serially diluted one Inh2-B1 (B1 to H1) and ceftriaxone (A2-A12) or cefotaxime (A2-A12) were then incorporated in Muller-Hinton mini agar plates (2 mL). The agar plates were then seeded and diluted S. aureus MW2-wild-type culture equivalent to approximately 23±3 CFU. This checkerboard assay was used to determine the ideal combination of lowest concentration of Inh2-B1 and ceftriaxone that kills 99.9% of the wild-type MW2.
Since the STK1 is not essential for bacterial survival and its absence results in retardation of growth, an end-point bactericidal assay was done, employing the Checkerboard titration method followed by a time-to-kill assay using the broth dilution method. The 96-well plate-based checkerboard titration assays were performed using the fixed number of CFUs of MW2 strain, and the survival of the bacteria was measured on solid agar plates as an end-point result. […] The cut-off value to designate clinical isolates of S. aureus for antibiotics, including Ceftriaxone (TX) and Cefotaxime (CT) as susceptible, is less than 4 μg/ml (i.e., <4.8 μM of TX, and <7 μM of CT). […] CFU counts of MW2-WT grown in the presence of various concentrations of Inh2-B1 were examined over a period of 16 h. […] Similarly, it was also determined CFU counts of MW2-WT and MW2ΔSTK1 strains each grown in the absence or the presence of 50 μM of Inh2-B1 and 1.5 μM Ceftriaxone (1 μg/ml) or […] Cefotaxime (1 μg/ml) for 16 h employing the broth dilution method. […] Further, to address whether MW2 or STK1 could become refractory to a potential combined therapy, the S. aureus MW2 wild-type strain was grown in the presence of suboptimal dose of Inh2-B1 alone and combination with Ceftriaxone and Cefotaxime (25 μM Inh2-B1 and 3 μM of Ceftriaxone or 3 μM Cefotaxime) for consecutive 10 generations.
Subsequently, the susceptibility of S. aureus MW2 strain to Ceftriaxone, Cefotaxime, Inh2, and Inh2-B1 was confirmed by the CLSI recommended serial dilution method using Muller Hinton broth. Minimum bactericidal activity (MBC) was measured using Muller-Hinton agar. Changes in the MBC of Ceftriaxone/Cefotaxime in the presence of serially diluted Inh2-B1 was determined in two steps. Initial screening was carried out using the Checkerboard method using Muller-Hinton agar (FIG. 15). […] Subsequent time to kill assays were carried out using 50 μM Inh2-B1 and Ceftriaxone. Cefotaxime (1 μg/ml) in a final volume of 250 μl using a sterile 96-well (U-bottom) microtiter plate over a period of 16 h at 37° C. under constant rotation (120 rpm). Optical density and corresponding CFU counts were measured at every two-hour interval up to 8 hours with a final overnight reading at the end of incubation period. CFU counts were measured using appropriate dilution of 10 μl of properly mixed samples at each time interval.

Data set [2] has as its system cell wall hydrolase genes in S. aureus MW2-WT. Description: qRT-PCR mRNA expression of cell wall hydrolase genes. Type of data set: cell-based, Staphylococcus aureus. The conditions noted are these: treated MW2-WT vs untreated. The procedure: The late log phase-grown S. aureus strains MW2 wild-type, and isogenic ΔSTK1 and ΔSTP1 mutant strains, as well as S. aureus MW2 strain treated with 25 μM Inh2-B1 for 4 h, were subjected to lysostaphin treatment to obtain whole cell lysate. Total RNA from the resulting lysate was first extracted by TRIZOL™ (Invitrogen/Thermo) and treated with RNase-free DNaseI. High-quality total RNA (RIN>7.0, and 260/280 and 260/230 ratios >1.8) was then extracted by using RNA purification kit (Norgen, Canada) per manufacturer's instructions and confirmed by an Agilent 2100 Bioanalyzer (Agilent Technologies, Palo Alto, Calif.). The first-strand cDNA from the total RNA was generated, and relative mRNA concentration was quantitated using SYBR Green qRT-PCR master mix and specific primers, using a Light Cycler® 480 real-time PCR machine (Table 2). The results obtained for all samples (three biological replicates each in triplicates) were normalized to corresponding values of 16S rRNA. All results including relative fold-changes in the mRNA expression (mutant vs. wild-type or treated vs. nontreated) for individual genes were analyzed using Exor4 software (Roche Applied Science). Changes in expression ratios by more than 2-fold (up- or down-regulation) were considered as significant.
In general terms: In qPCR the cycle at which signal appears reflects the starting amount.

Data set [3] concerns BEAS-2B cells. Description: MTT cell proliferation assay. The format is cell-based, human. The conditions noted are these: 24 h. As to the method: (§1) Impact of Inh2-B1 on cell proliferation was determined by MTT (3-[4,5-dimethylthiazol-2-yl]-2,5 diphenyl tetrazolium bromide)-based assay using Roche Colorimetric proliferation assay kit. Cell lines mentioned above were grown in 96-well tissue culture plates in the CO2 incubator at 37° C. The cells were treated with Inh2-B1 as described above in a final volume of 100 μl for 24 h. At the end of incubation, tissue culture medium from each well was removed and replaced with fresh 100 μl of the medium containing MTT solution (0.5 mg/ml) and further incubated for 4 h. The purple color of formazan salt crystals formed in each well was solubilized with the addition of 100 μl of 10% SDS solution in 0.01M HCl and further incubating for 10-12 h. The solubilized formazan product in each well was spectrophotometrically analyzed using a microtiter plate reader (Molecular Devices, 570 nm). Absorbance values of wells containing MTT reagents without cells and the untreated cultured cells with MTT reagents were considered as the background and negative controls. All tests were performed in triplicate wells. The average background value obtained from 10 wells was subtracted from the test values, and the corrected values obtained from untreated and treated cells were statistically analyzed by Student's test. P<0.05 was treated as a significant difference.

Data set [4] concerns Detroit 562 cells. Description: MTT cell proliferation assay. The format is cell-based, human. The conditions noted are these: even at 100 μM, 24 h. As to the method: as §1
For orientation: Tetrazolium assays rely on reduction of a dye to a coloured formazan, in cell work by metabolically active cells.

Regarding `COC(=O)c1ccc2c(=O)[nH]c3c(C(=O)Nc4ccccc4)sc(=S)n3c2c1` [Inh2-B1, Methyl 5-oxo-3-(phenylcarbamoyl)-1-thioxo-4,5dihydro[1,3]thiazolo[3,4-a]quinazoline-8-carboxylate], the MBC in data set [1] (Staphylococcus aureus, MW2WILDTYPE, MW2, read-out: Minimum bactericidal concentration (MBC)) was 100 µM. Besides, the “concentration up to which growth of MW2 was seen” value in data set [1] (further analysis) came out at 90 µM. Further, in data set [1] (checkerboard), the “concentration of wells with ≥1 CFU of wild-type MW2” value is at most 50 µM. Also, in data set [2], the “expression of cell wall hydrolase-encoding genes” value was “down-regulation of cell wall hydrolase-encoding genes”. Also, the “cell proliferation inhibition (MTT)” value was about 20% in data set [3] (50 μM) and about 40% in data set [3] (100 μM). Also, in data set [4], the “effect on cell proliferation (MTT)” value is given as “did not affect cell proliferation”.
